The values below come from PubChem BioAssay AID1552 (Sanford-Burnham Center for Chemical Genomics, 2009).

Calls of active or inactive are those of the source. How the calls were made is not given here.

In general, Kd refers to the concentration at which binding is half-saturated.

Ubiquitin-conjugating enzyme E2 N (Homo sapiens), sequence (P61088 whole entry, looked up): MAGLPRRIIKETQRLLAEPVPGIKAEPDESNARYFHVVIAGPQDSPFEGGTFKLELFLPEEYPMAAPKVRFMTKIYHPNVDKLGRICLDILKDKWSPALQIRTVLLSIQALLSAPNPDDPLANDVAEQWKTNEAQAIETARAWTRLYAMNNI

The experiment addresses Ubiquitin-conjugating enzyme E2 N (Homo sapiens) (UniProt P61088). Put plainly: NMR detection of UBE2N ligand binding – biophysical, purified protein (AID 1552). As to conditions: NMR binding to purified UBE2N.
Regarding `O=[N+]([O-])c1cccc(CN2CCC(O)CC2)c1`, the Kd is > 4 mM (inactive). On to `NC1=NCc2ccccc21`, for which the Kd is > 4 mM (inactive). The result for `O=S1(=O)CCC(NC(=S)N2CCCCC2)C1` (stereo unspecified) reads > 4 mM (inactive).

For `O=C1CSC(=Nc2ccc(Cl)cc2)N1`, the Kd is > 4 mM (inactive). With `COc1ccc2c(c1OC)C(=O)N(c1ncn[nH]1)C2`, the Kd is > 4 mM (inactive).

Consider `CS(=O)(=O)N1CCN(c2ncccn2)CC1`, for which the Kd is > 4 mM (inactive). In the case of `O=c1ccc(=O)n(CN2CCc3ccccc3C2)[nH]1` it was > 4 mM (inactive); in that of `O=C1C2CCCCC2C(=O)N1Cc1cccnc1` (stereo unspecified), > 4 mM (inactive). In the case of `O=C(NS(=O)(=O)c1ccccc1)c1ccccc1F`, the Kd is > 4 mM (inactive). With `Nc1c(/C=C2\C=Nc3ccccc32)c(=O)nc2scnn12`, the Kd is > 4 mM (inactive). On to `CC(C)=CCCC1(C)C=Cc2c(O)c3c(c(CC=C(C)C)c2O1)OC12C(=CCCC1C(C)(C)O[C@@]2(C/C=C(\C)C(=O)O)C(=O)O)C3=O` (stereo partly specified), for which the Kd was > 4 mM (inactive).

As to `COCC(=O)Nc1cccc2ccccc12`, the Kd was > 4 mM (inactive). In the case of `Cc1nc(SCC#N)c2c(C)c(C)sc2n1` it was > 4 mM (inactive). Consider `CCCCCCCCCCCCCCC(C(=O)OC)C(O)(CC(=O)OC)C(=O)OC` (stereo unspecified), for which the Kd is > 4 mM (inactive). Consider `COn1c(=O)c(C)[n+]([O-])c2ccccc21`, for which the Kd is > 4 mM (inactive). Take `CCN1C(=O)N(CO)C2C1N(C)C(=O)N2C` (stereo unspecified): the Kd was > 4 mM (inactive). As for `Cn1nc(C(=O)Nc2cccnc2)cc1Cl`, the Kd was > 4 mM (inactive). As to `O=C(Cc1cccs1)Nc1ccccn1`, the Kd was > 4 mM (inactive). Take `Cc1c(N=CN(C)C)c(=O)n(-c2ccccc2)n1C`: the Kd is > 4 mM (inactive). The result for `O=S1(=O)CCC(Nc2ccccc2)C1` (stereo unspecified) reads > 4 mM (inactive); that for `COc1cc(/C=C/C(=O)/C=C(O)/C=C/c2ccc(O)c(OC)c2)ccc1O`, > 4 mM (inactive); that for `OCC(O)C(O)C(O)CO` (stereo unspecified), > 4 mM (inactive).

`O=C(O[C@@H]1Cc2c(O)cc(O)cc2O[C@@H]1c1cc(=O)c(O)c2c(O)c(O)cc([C@H]3Oc4cc(O)cc(O)c4C[C@H]3O)c2c1)c1cc(O)c(O)c(O)c1`: the Kd was > 4 mM (inactive). In the case of `Nc1nnc(SCc2cccnc2)s1`, the Kd was > 4 mM (inactive).

With `NC(=O)c1sc2ccccc2c1Cl`, the Kd is > 4 mM (inactive). Turning to `N#Cc1cnc(N2CCCCC2)nc1N`, the Kd is > 4 mM (inactive). In the case of `CCOC(=O)C1CCN(Cc2ccccc2)CC1` it was > 4 mM (inactive).

As to `Cc1ccc(C)c(C(=O)NCc2ccncc2)c1`, the Kd was > 4 mM (inactive). In the case of `Cc1cc(C(=O)N2CCN(c3ncccn3)CC2)cs1`, the Kd is > 4 mM (inactive). As to `O=C(Nn1cnnc1)c1cc2c(s1)CCCCC2`, the Kd was > 4 mM (inactive). The result for `O=c1cc(O)nc(SCc2ccccc2)[nH]1` reads > 4 mM (inactive). Turning to `N#Cc1c(N)c(C(=O)c2ccccc2)n2c1CCC2`, the Kd was > 4 mM (inactive). For `Nc1cncc(C(=O)O)c1`, the Kd is > 4 mM (inactive). Take `CCn1c(C)c(C(C)=O)c(N2CCN(C)CC2)nc1=S`: the Kd is > 4 mM (inactive). In the case of `N#CCN1C(=O)c2ccccc2S1(=O)=O`, the Kd is > 4 mM (inactive).

With `NC(=O)C1(c2ccccc2)CCOCC1`, the Kd is > 4 mM (inactive). `CC1CCN(C(=O)c2ccc(NS(C)(=O)=O)cc2)CC1`: the Kd was > 4 mM (inactive). For `NC(=O)C1CCCN1S(=O)(=O)c1ccc(F)cc1` (stereo unspecified), the Kd is > 4 mM (inactive). For `Cc1onc(-c2ccccc2)c1C(=O)Nc1ccncc1`, the Kd is > 4 mM (inactive). With `CC(=O)Nc1cccc(Cn2cccn2)c1`, the Kd was > 4 mM (inactive). As to `O=C(Nc1c[nH]c(=O)[nH]c1=O)c1ccccc1F`, the Kd was > 4 mM (inactive). Consider `Cn1c(=O)c2c([nH]c(=O)n2C)n(C)c1=O`, for which the Kd was > 4 mM (inactive). On to `COc1ccc(CC(=O)c2ccc(O)cc2O)cc1`, for which the Kd was > 4 mM (inactive).

As for `C[n+]1ccc(C(=O)[O-])cc1`, the Kd is > 4 mM (inactive). As to `CC(=O)O[C@@H]1CC2C(C)(C)C(=O)C=C[C@]2(C)C2CC[C@]3(C)C(=CC(=O)O[C@H]3c3ccoc3)[C@@]21C` (stereo partly specified), the Kd is > 4 mM (inactive). As to `CC(=O)Nc1ccc(C)cc1NC(C)=O`, the Kd is > 4 mM (inactive).

As for `O=C(O)CNC(=O)c1ccccc1Cl`, the Kd was > 4 mM (inactive).

Take `O=C(O)CCC(=O)Nc1nccs1`: the Kd is > 4 mM (inactive). In the case of `O=C(Cn1cncn1)c1ccc(F)c(F)c1` it was > 4 mM (inactive); in that of `Cc1cc(=O)c2c(O)cc(O)c(C)c2o1`, > 4 mM (inactive); in that of `CN1CCN(C(=S)c2ccc(N(C)C)cc2)CC1`, > 4 mM (inactive). For `O=C1CCN(c2ccccc2)N1`, the Kd was > 4 mM (inactive).

Regarding `COc1cnn(Cc2ccccc2)c(=O)c1Cl`, the Kd was > 4 mM (inactive). In the case of `CCNS(=O)(=O)c1cc(Br)ccc1OC` it was > 4 mM (inactive); in that of `CC(=O)CC1(O)C(=O)Nc2ccccc21` (stereo unspecified), > 4 mM (inactive); in that of `NC12CC3CC(C1)CC(C(=O)O)(C3)C2`, > 4 mM (inactive). In the case of `Cc1nc(NC(=O)c2cccnc2)ccc1Br` it was > 4 mM (inactive); in that of `O=[N+]([O-])c1cccc(-c2nnco2)c1`, > 4 mM (inactive); in that of `Cc1cc(C)c2nncn2n1`, > 4 mM (inactive).

Take `O=c1cc(-c2ccccc2)oc2cc(O)c(O)c(O)c12`: the Kd is > 4 mM (inactive).

Regarding `OCc1ccccc1CN1CCOCC1`, the Kd was > 4 mM (inactive).

Turning to `Nc1nc(-c2ccncc2)cs1`, the Kd is > 4 mM (inactive). `O=C1CCCC2C3CC(CN12)[C@@H]1CCCCN1C3` (stereo partly specified): the Kd is > 4 mM (inactive).

Turning to `Cn1cc(Cl)c(C(=O)Nc2ccncc2)n1`, the Kd is > 4 mM (inactive). As for `O=C(O)c1cccnc1N1CCCC1`, the Kd was > 4 mM (inactive). In the case of `CC(C)NC1CS(=O)(=O)CC1O` (stereo unspecified) it was > 4 mM (inactive); in that of `S=C(c1ccc(N2CCOCC2)cc1)N1CCCCC1`, > 4 mM (inactive). With `C=CC1=C(C)/C(=C/c2[nH]c(Cc3[nH]c(/C=C4\NC(=O)C(C)=C4C=C)c(C)c3CCC(=O)O)c(CCC(=O)O)c2C)NC1=O`, the Kd is > 4 mM (inactive). On to `O=C(NCc1cccc(Cl)c1)c1ccco1`, for which the Kd was > 4 mM (inactive). Regarding `CC(=O)N1CCN(S(=O)(=O)c2ccccc2)CC1`, the Kd is > 4 mM (inactive).

In the case of `NC(=O)COc1cccc2cccnc12`, the Kd is > 4 mM (inactive). As to `COC(=O)c1ccc(C(=S)N2CCOCC2)cc1`, the Kd was > 4 mM (inactive).

In the case of `COc1cc(C)c(Cl)cc1S(=O)(=O)N(C)C`, the Kd is > 4 mM (inactive). Take `Cc1nc(-c2ccccc2)sc1CN`: the Kd is > 4 mM (inactive). The result for `CCc1ccccc1OCc1nnc(N)s1` reads > 4 mM (inactive); that for `CN(C)C(=O)CSc1nc2ccccc2c(=O)[nH]1`, > 4 mM (inactive). Take `Cc1ccc(F)cc1NC(=O)c1ccc2c(c1)OCO2`: the Kd is > 4 mM (inactive). On to `Cc1nc2[nH]onc2c2nccc(=O)c12`, for which the Kd is > 4 mM (inactive).

Take `CN1C(=O)/C(=C/c2ccc(O)cc2O)SC1=S`: the Kd was > 4 mM (inactive).

On to `COc1ccccc1N1C(=N)SCC1=O`, for which the Kd was > 4 mM (inactive).

`S=c1nc[nH]c2c1cnn2-c1ccccc1`: the Kd is > 4 mM (inactive).

With `NC(=O)CS(=O)(=O)c1ccc(Cl)cc1`, the Kd is > 4 mM (inactive). As to `Cc1nc(-c2cc(C(=O)O)no2)cs1`, the Kd is > 4 mM (inactive). Consider `c1ccc(-c2nnc(CNCc3ccco3)o2)cc1`, for which the Kd is > 4 mM (inactive). In the case of `COc1cc2c(cc1OC)[C@@H]1C(=O)c3ccc(OC)c(CC=C(C)C)c3O[C@@H]1CO2` it was > 4 mM (inactive); in that of `Nc1cc2ccccc2cn1`, > 4 mM (inactive). With `O=c1[nH]cc(COCc2ccccc2)c(=O)[nH]1`, the Kd is > 4 mM (inactive). On to `O=c1ccnc(Nc2ccccc2O)[nH]1`, for which the Kd is > 4 mM (inactive). For the compound `NCC(N)C(=O)c1ccccc1` (stereo unspecified), the Kd is > 4 mM (inactive).

As to `CS/C(N)=C\C(C)=O`, the Kd was > 4 mM (inactive). In the case of `S=C(NCc1cccnc1)NC1CC1`, the Kd is > 4 mM (inactive).

With `Cc1n[nH]c(C)c1-c1ccccc1C(=O)O`, the Kd is > 4 mM (inactive). Regarding `OCC1=Cc2ccccc2OC1`, the Kd is > 4 mM (inactive). As to `Cc1nnsc1C(=O)O`, the Kd is > 4 mM (inactive).

Consider `Cc1cc(C(F)(F)F)n2nc(C(=O)O)c(Cl)c2n1`, for which the Kd was > 4 mM (inactive). The result for `S=C(c1ccc2c(c1)OCO2)N1CCCC1` reads > 4 mM (inactive). With `CNC(=S)Nc1ccc(OC)cc1C`, the Kd is > 4 mM (inactive). On to `N=C1/C(=C\c2ccco2)C(=O)N=C2SC=NN12`, for which the Kd is > 4 mM (inactive). In the case of `COC(=O)c1c(C)cc(OC)cc1O` it was > 4 mM (inactive); in that of `NC(CCC(=O)Nc1ccc([N+](=O)[O-])cc1)C(=O)O` (stereo unspecified), > 4 mM (inactive); in that of `C=C[C@@](C)(O)CCC1C(=C)C[C@H](OC(C)=O)C2C(C)(C)CCCC12C` (stereo partly specified), > 4 mM (inactive). `O=C1CNC(=O)/C1=C/c1ccc(O)cc1`: the Kd was > 4 mM (inactive).

For `NC(=O)NCCCC(N)C(=O)O` (stereo unspecified), the Kd is > 4 mM (inactive). Turning to `O=C1N=c2ccccc2=C1c1sc(=S)[nH]c1O`, the Kd was > 4 mM (inactive).

With `O=c1oc(-c2ccccc2)nc2c1cnn2-c1ccccc1`, the Kd is > 4 mM (inactive). In the case of `Cc1cc(C(=O)N2CCN(c3ccccn3)CC2)c(C)o1`, the Kd is > 4 mM (inactive).
